According to paper PMC9200736, “Complete biosynthetic pathway to the antidiabetic drug acarbose” (Nature Communications, 2022):

Tests used:
[1] = system: O=P(O)(O)O[C@H]1C=C(CO)[C@@H](O)[C@H](O)[C@H]1O; assay: purified protein; details: GTP 1 mM, MgCl2 1 mM, Tris-HCl pH 7.5, 30 °C, AcbR 1.0 µM
[2] = system: O=P(O)(O)OCC1=C[C@H](OP(=O)(O)O)[C@H](O)[C@@H](O)[C@@H]1O; assay: purified protein; details: Tris-HCl 20 mM pH 7.5, 30 °C, AcbJ 1.0 µM
[3] = molecular target: T1, AcbU (Actinoplanes sp. SE50/110, UniProt Q27GS3); assay: PK/LDH coupled assay, A340; LC-MS of product; format: biochemical; details: ATP […], MgCl2 […], Tris-HCl pH […] °C; substrate […]
T1 construct: recombinant from pRSET-B in E. coli BL21(DE3)/pLysS, Ni-NTA purified
T1 sequence (Q27GS3 1-492): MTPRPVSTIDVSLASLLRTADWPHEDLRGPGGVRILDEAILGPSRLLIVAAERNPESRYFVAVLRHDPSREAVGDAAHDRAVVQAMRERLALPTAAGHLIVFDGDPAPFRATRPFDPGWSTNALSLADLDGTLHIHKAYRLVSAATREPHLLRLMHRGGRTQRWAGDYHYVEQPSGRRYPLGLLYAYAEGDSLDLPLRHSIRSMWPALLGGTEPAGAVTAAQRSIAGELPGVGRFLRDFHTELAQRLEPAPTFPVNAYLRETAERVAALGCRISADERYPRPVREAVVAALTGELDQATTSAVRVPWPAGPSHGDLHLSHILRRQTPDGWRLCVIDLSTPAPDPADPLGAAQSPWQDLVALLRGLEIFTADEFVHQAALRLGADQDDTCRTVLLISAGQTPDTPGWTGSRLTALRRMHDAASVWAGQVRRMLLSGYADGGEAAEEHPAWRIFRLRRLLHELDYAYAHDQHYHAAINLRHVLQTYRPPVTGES

[4] = molecular target: T2, ValC (Streptomyces hygroscopicus, UniProt Q3T6E2); assay: preparative phosphorylation, conversion by PK/LDH assay; format: biochemical; details: ATP 6 mM, MgCl2 5 mM, Tris-HCl pH 7.5, 30 °C, 6 h
T2 construct: recombinant from pRSETB-valC in E. coli BL21(DE3)/pLysS, Ni-NTA purified
T2 sequence (Q3T6E2 1-351): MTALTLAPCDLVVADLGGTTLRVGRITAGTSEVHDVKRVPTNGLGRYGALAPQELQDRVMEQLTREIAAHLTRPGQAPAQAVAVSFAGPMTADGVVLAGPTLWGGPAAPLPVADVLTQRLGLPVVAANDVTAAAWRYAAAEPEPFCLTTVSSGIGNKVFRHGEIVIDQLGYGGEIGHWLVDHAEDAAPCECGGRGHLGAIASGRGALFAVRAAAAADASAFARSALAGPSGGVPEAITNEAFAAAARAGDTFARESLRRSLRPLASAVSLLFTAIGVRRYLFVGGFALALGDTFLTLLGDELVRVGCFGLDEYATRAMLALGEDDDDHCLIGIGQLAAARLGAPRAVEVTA

[5] = molecular target: T3, AcbS (Actinoplanes sp. SE50/110, UniProt Q27GS2); assay: LC-QTOF/MS and MS/MS of product acarbose; format: biochemical; details: GDP-V generated in situ by AcbR from V1P and GTP; 4-aminoDGG […], MgCl2 […], pH […] °C, […] h
T3 construct: recombinant from pRSET-B in E. coli BL21(DE3)/pLysS, Ni-NTA purified
T3 sequence (Q27GS2 1-709): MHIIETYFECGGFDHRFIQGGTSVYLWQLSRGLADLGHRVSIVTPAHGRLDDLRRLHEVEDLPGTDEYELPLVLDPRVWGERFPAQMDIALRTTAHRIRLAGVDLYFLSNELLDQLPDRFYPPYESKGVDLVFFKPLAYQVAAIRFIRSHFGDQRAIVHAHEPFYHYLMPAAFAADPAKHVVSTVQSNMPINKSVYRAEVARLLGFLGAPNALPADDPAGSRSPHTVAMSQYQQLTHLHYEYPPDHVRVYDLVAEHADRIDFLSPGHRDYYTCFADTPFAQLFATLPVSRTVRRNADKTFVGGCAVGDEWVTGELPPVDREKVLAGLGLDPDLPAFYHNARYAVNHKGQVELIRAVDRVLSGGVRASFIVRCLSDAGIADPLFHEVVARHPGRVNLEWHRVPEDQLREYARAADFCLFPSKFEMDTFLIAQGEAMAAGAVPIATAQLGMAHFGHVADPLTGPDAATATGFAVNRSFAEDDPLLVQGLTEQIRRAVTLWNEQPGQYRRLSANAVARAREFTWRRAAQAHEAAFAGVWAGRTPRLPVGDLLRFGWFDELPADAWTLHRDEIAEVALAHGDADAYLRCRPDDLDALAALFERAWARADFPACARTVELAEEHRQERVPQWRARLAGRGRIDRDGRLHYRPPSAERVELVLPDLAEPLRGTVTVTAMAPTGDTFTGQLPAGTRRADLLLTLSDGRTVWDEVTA

[6] = molecular target: T4, AcbK (Actinoplanes sp. SE50/110, UniProt Q8RMD4); assay: preparative phosphorylation, conversion by PK/LDH assay; format: biochemical; details: ATP 6 mM, MgCl2 5 mM, Tris-HCl pH 7.5, 30 °C, 6 h
T4 construct: recombinant from pET28b in E. coli BL21(DE3)/pLysS, Ni-NTA purified
T4 sequence (Q8RMD4 whole entry): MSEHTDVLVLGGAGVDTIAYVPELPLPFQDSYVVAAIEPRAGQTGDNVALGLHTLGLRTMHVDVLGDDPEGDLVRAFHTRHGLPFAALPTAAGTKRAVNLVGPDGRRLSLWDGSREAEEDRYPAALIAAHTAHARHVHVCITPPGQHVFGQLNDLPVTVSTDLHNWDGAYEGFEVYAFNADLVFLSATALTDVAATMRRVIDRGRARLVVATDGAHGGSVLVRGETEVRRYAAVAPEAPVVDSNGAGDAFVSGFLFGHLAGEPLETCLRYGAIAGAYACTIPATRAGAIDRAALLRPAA

Work on AcbR (Actinoplanes sp. SE50/110) yielded a Km [1] of 412 ± 83 µM and a kcat [1] of 0.233 ± 0.017 s⁻¹.

In the case of AcbJ (Actinoplanes sp. SE50/110), the Km [2] is reported as 817 ± 168 µM and the kcat [2] is reported as 0.367 ± 0.067 s⁻¹.

In the case of OCC1=C[C@H](O)[C@H](O)[C@@H](O)[C@@H]1O [V], the “PK/LDH coupled assay, A340; LC-MS of product” value [3] is reported as “AcbU can also phosphorylate valienol (V)” and the “preparative phosphorylation, conversion by PK/LDH assay” value [4] is reported as “phosphorylation of synthetically prepared valienol using the cyclitol kinase ValC”.

O=P(O)(O)OCC1=C[C@H](O)[C@H](O)[C@@H](O)[C@@H]1O [compound 12, V7P] was tested, and the “PK/LDH coupled assay, A340; LC-MS of product” value [3] was “V7P is a preferred substrate for AcbU to produce V1,7PP”.

In the case of Nc1nc2c(ncn2[C@@H]2O[C@H](COP(=O)(O)OP(=O)(O)O[C@H]3C=C(CO)[C@@H](O)[C@H](O)[C@H]3O)[C@@H](O)[C@H]2O)c(=O)[nH]1 [compound 16, GDP-V], the “LC-QTOF/MS and MS/MS of product acarbose” value [5] is reported as “incubation of recombinant AcbS with GDP-V (generated in situ”.

With C[C@H]1O[C@H](O[C@H]2[C@H](O)[C@@H](O)[C@@H](O[C@H]3[C@H](O)[C@@H](O)C(O)O[C@@H]3CO)O[C@@H]2CO)[C@H](O)[C@@H](O)[C@@H]1N[C@H]1C=C(CO)[C@@H](O)[C@H](O)[C@H]1O (stereo partly drawn) [compound 1, acarbose] the “preparative phosphorylation, conversion by PK/LDH assay” value [6] was “prepared enzymatically from acarbose and ATP using the acarbose kinase AcbK”.
